Laboratory results: patent US20220071932A1, “Compositions and Methods Against Stress-Induced Affective Disorders and Their Associated Symptoms” (The Trustees of Columbia University in the City of New York, priority 2019, published 2022)

Tests used:
[1] = system: 129S6/SvEv mice; assay: Contextual fear conditioning (CFC), 3-shock; freezing; type: in vivo
Method: A 3-shock CFC paradigm was administered as previously described (45, 46). CFC was conducted in chambers obtained from Med Associates (St. Albans, Vt.), with internal dimensions of approximately 20 cm wide×16 cm deep×20.5 cm high. The chambers had metal walls on each side, clear plastic front and back walls and ceilings, and stainless-steel bars on the floor. A house light (CM1820 bulb, 28v, 100 mA) mounted directly above the chamber provided illumination. Each chamber was located inside a larger, insulated, plastic cabinet that provided protection from outside light and noise. Each cabinet contained a ventilation fan that was operated during the sessions. A paper towel dabbed with lemon solution was placed underneath the chamber floor. Mice were held outside the experimental room in their home cages prior to testing and transported to the conditioning apparatus individually in standard mouse cages Chambers were cleaned with 70% EtOH between each set of mice. Mice were placed into the conditioning chamber and received shocks at 180 s, 240 s, and 300 s (2 s duration, 0.75 mA). Fifteen seconds after the last shock, mice were removed from the chamber. Overall, the training session lasted 317 s. […] All sessions were scored for freezing using FreezeFrame4.

[2] = system: 129S6/SvEv mice; assay: Forced swim test (FST); immobility time; type: in vivo; conditions: for p, Fisher's PLSD Saline vs. drug, FST Day 2 Immobility Time (sec): drug 1 week before stress; for p, Fisher's PLSD Saline vs. drug, FST Day 2 Immobility Time Min 1 (s) / p, Fisher's PLSD Saline vs. drug, FST Day 2 Immobility Time Min 2 (s) / p, Fisher's PLSD Saline vs. drug, FST Day 2 Immobility Time Min 3 (s) / p, Fisher's PLSD Saline vs. drug, FST Day 2 Immobility Time Min 4 (s) / p, Fisher's PLSD Saline vs. drug, FST Day 2 Immobility Time Min 5 (s) / p, Fisher's PLSD Saline vs. drug, FST Day 2 Immobility Time Min 6 (s) / p, Fisher's PLSD Saline vs. drug, FST Day 2 Immobility Time (s): drug 5 minutes after stress; for p, Fisher's PLSD Saline vs. drug, FST Day 2 Immobility Time Min 1 (s) / p, Fisher's PLSD Saline vs. drug, FST Day 2 Immobility Time Min 2 (s) / p, Fisher's PLSD Saline vs. drug, FST Day 2 Immobility Time Min 3 (s) / p, Fisher's PLSD Saline vs. drug, FST Day 2 Immobility Time Min 4 (s) / p, Fisher's PLSD Saline vs. drug, FST Day 2 Immobility Time Min 5 (s) / p, Fisher's PLSD Saline vs. drug, FST Day 2 Immobility Time Min 6 (s): FIG. 2F; for p, Fisher's PLSD Saline vs. drug, FST Day 2 Immobility Time (s): FIG. 2G
Method: The FST was administered as previously described (47). Briefly, mice were placed into clear plastic buckets 20 cm in diameter and 23 cm deep filled ⅔ of the way with 22° C. water. Mice were videotaped from the side for 6 min and were exposed to the swim test on 2 consecutive days Immobility time was scored by an experimenter blind to the experimental groups.

[3] = Saline vs. FENM (20 mg/kg), FIG. 8F
[4] = dose (20), drug 5 minutes after stress, FIG. 2C
[5] = (R,S)-ketamine (30 mg/kg) vs. FENM (20 mg/kg), FIG. 8H

NC12CC3CC(C1)CC(CCF)(C3)C2 [FENM, 1-amino-3-fluoroethyl-adamantane]
CFC Re-exposure 2, Freezing Min 4 (%), p (Fisher's LSD) [1, 3]: 0.3068 | CFC Re-exposure 2, Freezing Min 5 (%), p (Fisher's LSD) [1, 3]: 0.3729 | CFC Re-exposure 1, Freezing (%), p (Fisher's LSD) ([1]; Saline vs. FENM (20 mg/kg), after ANOVA, FIG. 8E): 0.0665 | CFC Re-exposure 2, Freezing (%), p (Fisher's LSD) ([1]; Saline vs. FENM (20 mg/kg), after ANOVA, FIG. 8G): 0.0173 | CFC Re-exposure 1, Freezing (%), p (Fisher's LSD) ([1]; Saline vs. FENM (20 mg/kg), after RMANOVA, FIG. 8D): 0.0665 | CFC Re-exposure 2, Freezing (%), p (Fisher's LSD) ([1]; Saline vs. FENM (20 mg/kg), after RMANOVA, FIG. 8F): 0.0173 | p, Fisher's PLSD Saline vs. drug, CFC Re-exposure Freezing Min 1 (%) [1, 4]: 0.1072 | p, Fisher's PLSD Saline vs. drug, CFC Re-exposure Freezing Min 2 (%) [1, 4]: 0.0080 | p, Fisher's PLSD Saline vs. drug, CFC Re-exposure Freezing Min 3 (%) [1, 4]: 0.1619 | p, Fisher's PLSD Saline vs. drug, CFC Re-exposure Freezing Min 4 (%) [1, 4]: 0.5390 | p, Fisher's PLSD Saline vs. drug, CFC Re-exposure Freezing Min 5 (%) [1, 4]: 0.8801 | p, Fisher's PLSD Saline vs. drug, CFC Re-exposure Freezing (%) ([1]; dose (20), drug 5 minutes after stress, after RMANOVA, FIG. 2C): 0.1188 | behavior during CFC training ([1]; one week prior to 3-shock CFC (c-fos / Western blot cohort), (R,S)-ketamine 30 mg/kg, FENM 20 mg/kg, vs saline): did not alter behavior | freezing upon re-exposure ([1]; one week prior to 3-shock CFC, re-exposed five days later, (R,S)-ketamine 30 mg/kg, FENM 20 mg/kg, vs saline): significantly reduced freezing | p, Fisher's PLSD Saline vs. drug, FST Day 2 Immobility Time (sec) ([2]; 10 mg/kg, after ANOVA, FIG. 1G): 0.0307 | p, Fisher's PLSD Saline vs. drug, FST Day 2 Immobility Time (sec) ([2]; 10 mg/kg, after RMANOVA, FIG. 1F): 0.0085 | p, Fisher's PLSD Saline vs. drug, FST Day 2 Immobility Time Min 1 (s) ([2]; 10 mg/kg): 0.3105 | p, Fisher's PLSD Saline vs. drug, FST Day 2 Immobility Time Min 2 (s) ([2]; 10 mg/kg): 0.2275 | p, Fisher's PLSD Saline vs. drug, FST Day 2 Immobility Time Min 3 (s) ([2]; 10 mg/kg): 0.0949 | p, Fisher's PLSD Saline vs. drug, FST Day 2 Immobility Time Min 4 (s) ([2]; 10 mg/kg): 0.1329 | p, Fisher's PLSD Saline vs. drug, FST Day 2 Immobility Time Min 5 (s) ([2]; 10 mg/kg): 0.4763 | p, Fisher's PLSD Saline vs. drug, FST Day 2 Immobility Time Min 6 (s) ([2]; 10 mg/kg): 0.4453 | p, Fisher's PLSD Saline vs. drug, FST Day 2 Immobility Time (s) ([2]; 10 mg/kg, after ANOVA): 0.0204 | p, Fisher's PLSD Saline vs. drug, FST Day 2 Immobility Time (sec) ([2]; 20 mg/kg, after ANOVA, FIG. 1G): <0.0001 | p, Fisher's PLSD Saline vs. drug, FST Day 2 Immobility Time (sec) ([2]; 20 mg/kg, after RMANOVA, FIG. 1F): <0.0001 | p, Fisher's PLSD Saline vs. drug, FST Day 2 Immobility Time (sec) ([2]; 30 mg/kg, after ANOVA, FIG. 1G): 0.0005 | p, Fisher's PLSD Saline vs. drug, FST Day 2 Immobility Time (sec) ([2]; 30 mg/kg, after RMANOVA, FIG. 1F): 0.0003 | p, Fisher's PLSD Saline vs. drug, FST Day 2 Immobility Time Min 1 (s) ([2]; 30 mg/kg): 0.9988 | p, Fisher's PLSD Saline vs. drug, FST Day 2 Immobility Time Min 2 (s) ([2]; 30 mg/kg): <0.0001 | p, Fisher's PLSD Saline vs. drug, FST Day 2 Immobility Time Min 3 (s) ([2]; 30 mg/kg): 0.2804 | p, Fisher's PLSD Saline vs. drug, FST Day 2 Immobility Time Min 4 (s) ([2]; 30 mg/kg): 0.4890 | p, Fisher's PLSD Saline vs. drug, FST Day 2 Immobility Time Min 5 (s) ([2]; 30 mg/kg): 0.8673 | p, Fisher's PLSD Saline vs. drug, FST Day 2 Immobility Time Min 6 (s) ([2]; 30 mg/kg): 0.6591 | p, Fisher's PLSD Saline vs. drug, FST Day 2 Immobility Time (s) ([2]; 30 mg/kg, after ANOVA): 0.0210 | immobility time, day 2 of the FST ([2]; 5 minutes after CFC, re-exposure 1 day after training, (R,S)-ketamine 30 mg/kg, FENM 20 mg/kg, vs saline): significantly reduced immobility time | Forced Swim Test Day 1, Immobility Time Min 1 (sec), p (Fisher's LSD) [2, 5]: 0.2548 | Forced Swim Test Day 1, Immobility Time Min 2 (sec), p (Fisher's LSD) [2, 5]: 0.5009 | Forced Swim Test Day 1, Immobility Time Min 3 (sec), p (Fisher's LSD) [2, 5]: 0.4155 | Forced Swim Test Day 1, Immobility Time Min 4 (sec), p (Fisher's LSD) [2, 5]: 0.7067
